Among the data in PubChem BioAssay AID256 (DTP/NCI, 2004) are T/C values, retold here.

The structures appear in SMILES notation. “And” between values parts separate entries of the source, which are not always exact repeats. Identical values can stand only once. Toxic doses and inconclusive results are not listed.

The test system of the assay is CD2F1 mice, L1210 leukemia ip, survival T/C. Kind of assay: NCI In Vivo Anticancer Drug Screen. Data for tumor model L1210 Leukemia (intraperitoneal) in CD2F1 (CDF1) mice. To be noted: higher = longer survival. An outline of the steps:
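Implant tumor; dose compound or vehicle; measure endpoint in both groups; report treated divided by control.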

The mark [1] stands for this setting: endpoint: mean survival time, dose: 100.0 mg/kg/injection, schedule: Q01DX009 (ip), vehicle: saline with Tween-80.
[2] abbreviates: endpoint: mean survival time, dose: 100.0 mg/kg/injection, schedule: Q04DX003 (ip), vehicle: saline with Tween-80.
Setting [3] is: endpoint: mean survival time, dose: 200.0 mg/kg/injection, schedule: Q01DX009 (ip), vehicle: saline with Tween-80.
The mark [4] stands for this setting: endpoint: mean survival time, dose: 300.0 mg/kg/injection, schedule: Q01DX001 (ip), vehicle: saline with Tween-80.
The mark [5] stands for this setting: endpoint: mean survival time, dose: 400.0 mg/kg/injection, schedule: Q01DX009 (ip), vehicle: saline with Tween-80.
Where [6] appears, read: endpoint: mean survival time, dose: 8.0 mg/kg/injection, schedule: Q01DX009 (ip), vehicle: saline with Tween-80.
Where [7] appears, read: endpoint: mean survival time, dose: 200.0 mg/kg/injection, schedule: Q04DX003 (ip), vehicle: saline with Tween-80.
[8] abbreviates: endpoint: mean survival time, dose: 400.0 mg/kg/injection, schedule: Q04DX003 (ip), vehicle: saline with Tween-80.
Setting [9] is: endpoint: mean survival time, dose: 12.5 mg/kg/injection, schedule: Q01DX009 (ip), vehicle: saline.
Where [10] appears, read: endpoint: mean survival time, dose: 25.0 mg/kg/injection, schedule: Q01DX009 (ip), vehicle: saline.
The mark [11] stands for this setting: endpoint: mean survival time, dose: 50.0 mg/kg/injection, schedule: Q01DX009 (ip), vehicle: saline.
[12] abbreviates: endpoint: mean survival time, dose: 75.0 mg/kg/injection, schedule: Q04DX003 (ip), vehicle: saline.
[13] abbreviates: endpoint: mean survival time, dose: 100.0 mg/kg/injection, schedule: Q01DX001 (ip), vehicle: saline with Tween-80.
Where [14] appears, read: endpoint: mean survival time, dose: 200.0 mg/kg/injection, schedule: Q01DX001 (ip), vehicle: saline with Tween-80.

With `Nc1nc(N)c(N)c(N)n1`, the T/C is 94 % of control (endpoint: mean survival time, dose: 75.0 mg/kg/injection, schedule: Q01DX001 (ip), vehicle: saline with Tween-80); 90 % of control under setting [1]; 98 % of control under setting [2]; 101 % of control (endpoint: mean survival time, dose: 150.0 mg/kg/injection, schedule: Q01DX001 (ip), vehicle: saline with Tween-80); 104 % of control under setting [3]; 103 % of control under setting [4]. Moreover, the T/C under setting [5] was 93 % of control.

On to `CC1=C(/C=C/C(C)=C/C=C/C(C)=C/C(=O)O)C(C)(C)CCC1`, for which the T/C reads like this: under setting [6], 100 % of control; (endpoint: mean survival time, dose: 16.0 mg/kg/injection, schedule: Q01DX009 (ip), vehicle: saline with Tween-80) 95 % of control; (endpoint: mean survival time, dose: 32.0 mg/kg/injection, schedule: Q01DX009 (ip), vehicle: saline with Tween-80) 95 % of control; (endpoint: mean survival time, dose: 64.0 mg/kg/injection, schedule: Q01DX009 (ip), vehicle: saline with Tween-80) 97 % of control; under setting [2], 105 % of control; (endpoint: mean survival time, dose: 128.0 mg/kg/injection, schedule: Q01DX009 (ip), vehicle: saline with Tween-80) 87 % of control. In addition, the T/C runs as follows: under setting [7], 100 % of control; under setting [8], 97 % of control.

For the molecule `CC(=O)OCCN(CCOC(C)=O)CCOC(C)=O`, the T/C (endpoint: mean survival time, dose: 100.0 mg/kg/injection, schedule: Q04DX003 (ip), vehicle: Klucel (hydroxypropylcellulose) (HPC)) is 95 % of control.

`Clc1ccc(CSC2=NCCN2)cc1`: the T/C is, setting by setting: under setting [9], 87 % of control; under setting [10], 87 % of control; under setting [11], 90 % of control.

Regarding `O=C(Nc1ccc(C(=O)O)cc1)OCc1ccccc1`, the T/C is 100 % of control under setting [2], 101 % of control under setting [7] and 91 % of control under setting [8].

As to `O=S1(=O)OCCC1=C(c1ccccc1)c1ccccc1`, the T/C under setting [12] was 95 % of control; the T/C (endpoint: mean survival time, dose: 150.0 mg/kg/injection, schedule: Q04DX003 (ip), vehicle: saline) was 97 % of control; the T/C (endpoint: mean survival time, dose: 300.0 mg/kg/injection, schedule: Q04DX003 (ip), vehicle: saline) was 91 % of control.

With `Cc1c2ccccc2c(CN(C)CC(=O)O)c2ccccc12`, the T/C under setting [2] is 102 % of control and the T/C under setting [7] was 102 % of control.

Take `O=C(O)C1CCC(C(=O)O)CC1.[NH-]C1CCCCC1[NH-].[Pt+2]` (stereo not given): the T/C by setting is: (endpoint: median survival time, dose: 3.12 mg/kg/injection, schedule: Q04DX003 (ip), vehicle: saline) 123 % of control and 112 % of control; (endpoint: median survival time, dose: 6.25 mg/kg/injection, schedule: Q04DX003 (ip), vehicle: saline) 122 % of control; (endpoint: median survival time, dose: 25.0 mg/kg/injection, schedule: Q04DX003 (ip), vehicle: saline) 168 % of control; (endpoint: median survival time, dose: 50.0 mg/kg/injection, schedule: Q04DX003 (ip), vehicle: saline) 207 % of control and 237 % of control; (endpoint: median survival time, dose: 100.0 mg/kg/injection, schedule: Q04DX003 (ip), vehicle: saline) 287 % of control and 365 % of control; (endpoint: median survival time, dose: 200.0 mg/kg/injection, schedule: Q04DX003 (ip), vehicle: saline) 87 % of control and 89 % of control.

For `COc1cccc2c1C(=O)c1c(O)c3c(c(O)c1C2=O)C[C@@](O)(C(=O)COC(=O)Cc1ccccc1)C[C@@H]3OC1CC(N)C(O)C(C)O1` (stereo not given in full), the T/C is 123 % of control (endpoint: mean survival time, dose: 0.5 mg/kg/injection, schedule: Q01DX009 (ip), vehicle: saline with Tween-80); 118 % of control (endpoint: mean survival time, dose: 1.32 mg/kg/injection, schedule: Q01DX009 (ip), vehicle: saline); 114 % of control (endpoint: mean survival time, dose: 2.0 mg/kg/injection, schedule: Q01DX009 (ip), vehicle: saline); 117 % of control (endpoint: mean survival time, dose: 3.0 mg/kg/injection, schedule: Q01DX009 (ip), vehicle: saline); 96 % of control under setting [6]; 158 % of control (endpoint: mean survival time, dose: 10.0 mg/kg/injection, schedule: Q04DX003 (ip), vehicle: saline with Tween-80). Also, the T/C (endpoint: mean survival time, dose: 20.0 mg/kg/injection, schedule: Q01DX001 (ip), vehicle: saline with Tween-80) is 107 % of control and the T/C (endpoint: mean survival time, dose: 20.0 mg/kg/injection, schedule: Q04DX003 (ip), vehicle: saline with Tween-80) is 102 % of control.

Turning to `O=C1c2ccccc2C(=O)c2c(O)c(Cc3cccnc3)cc(O)c21`, the T/C reads like this: (endpoint: mean survival time, dose: 100.0 mg/kg/injection, schedule: Q01DX009 (ip), vehicle: saline sonified) 98 % of control; (endpoint: mean survival time, dose: 200.0 mg/kg/injection, schedule: Q01DX009 (ip), vehicle: saline sonified) 98 % of control; (endpoint: mean survival time, dose: 400.0 mg/kg/injection, schedule: Q01DX009 (ip), vehicle: saline sonified) 102 % of control.

With `Cc1ccc(S(=O)(=O)/C=C(\I)c2ccccc2)cc1`, the T/C is 91 % of control under setting [1]; 96 % of control under setting [2]; 94 % of control under setting [3]; 96 % of control under setting [7]; 94 % of control under setting [5]; 93 % of control under setting [8].

Regarding `CN(CC#N)N=Nc1ccc(C(N)=O)cc1`, the T/C is, setting by setting: (endpoint: mean survival time, dose: 4.68 mg/kg/injection, schedule: Q01DX009 (ip), vehicle: Klucel (hydroxypropylcellulose) (HPC)) 96 % of control and 98 % of control; (endpoint: mean survival time, dose: 9.37 mg/kg/injection, schedule: Q01DX009 (ip), vehicle: Klucel (hydroxypropylcellulose) (HPC)) 102 % of control and 104 % of control; (endpoint: mean survival time, dose: 18.75 mg/kg/injection, schedule: Q01DX009 (ip), vehicle: Klucel (hydroxypropylcellulose) (HPC)) 95 % of control and 98 % of control; (endpoint: mean survival time, dose: 37.5 mg/kg/injection, schedule: Q01DX009 (ip), vehicle: Klucel (hydroxypropylcellulose) (HPC)) 102 % of control and 107 % of control; (endpoint: mean survival time, dose: 75.0 mg/kg/injection, schedule: Q01DX009 (ip), vehicle: Klucel (hydroxypropylcellulose) (HPC)) 118 % of control.

In the case of `Cc1ccc(CNc2ccc(I)cc2)cc1`, the T/C was 93 % of control under setting [2], 88 % of control under setting [7] and 86 % of control under setting [8].

`O=CCC1CCCCC1`: the T/C (endpoint: mean survival time, dose: 50.0 mg/kg/injection, schedule: Q01DX009 (ip), vehicle: saline with Tween-80) is 105 % of control; the T/C under setting [1] is 94 % of control; the T/C under setting [3] is 102 % of control.

With `O=NO.O=NO.[NH-]C1CCCCC1[NH-].[Pd+2]` (stereo not given), the T/C was 92 % of control (endpoint: mean survival time, dose: 3.13 mg/kg/injection, schedule: Q04DX003 (ip), vehicle: dextrose); 93 % of control (endpoint: mean survival time, dose: 6.25 mg/kg/injection, schedule: Q04DX003 (ip), vehicle: dextrose); 95 % of control (endpoint: mean survival time, dose: 12.5 mg/kg/injection, schedule: Q01DX001 (ip), vehicle: dextrose); 98 % of control (endpoint: mean survival time, dose: 12.5 mg/kg/injection, schedule: Q04DX003 (ip), vehicle: dextrose); 94 % of control (endpoint: mean survival time, dose: 25.0 mg/kg/injection, schedule: Q01DX001 (ip), vehicle: dextrose); 91 % of control (endpoint: mean survival time, dose: 50.0 mg/kg/injection, schedule: Q01DX001 (ip), vehicle: dextrose). For the same molecule, the T/C is, setting by setting: (endpoint: mean survival time, dose: 50.0 mg/kg/injection, schedule: Q04DX003 (ip), vehicle: dextrose) 95 % of control; (endpoint: mean survival time, dose: 100.0 mg/kg/injection, schedule: Q01DX001 (ip), vehicle: dextrose) 109 % of control; (endpoint: mean survival time, dose: 100.0 mg/kg/injection, schedule: Q04DX003 (ip), vehicle: dextrose) 100 % of control.

Take `CCCCCCCCCCCCNC(=O)C[n+]1cccc(C(=O)NC)c1`: the T/C was 98 % of control under setting [9]; 98 % of control (endpoint: mean survival time, dose: 18.8 mg/kg/injection, schedule: Q04DX003 (ip), vehicle: saline); 101 % of control under setting [10]; 95 % of control (endpoint: mean survival time, dose: 37.5 mg/kg/injection, schedule: Q04DX003 (ip), vehicle: saline); 98 % of control under setting [11]; 101 % of control under setting [12].

For the molecule `O=C1N(CCc2ccccc2)CC2C(c3ccccc3)NNC12O` (stereo not given), the T/C under setting [13] was 96 % of control; the T/C under setting [14] was 87 % of control; the T/C (endpoint: mean survival time, dose: 400.0 mg/kg/injection, schedule: Q01DX001 (ip), vehicle: saline with Tween-80) was 87 % of control.

As to `CN1C(=O)C(C(O)(c2ccccc2)c2ccccc2)C1c1ccccc1` (stereo not given), the T/C is 96 % of control (endpoint: mean survival time, dose: 50.0 mg/kg/injection, schedule: Q04DX002 (ip), vehicle: saline with Tween-80); 96 % of control (endpoint: mean survival time, dose: 100.0 mg/kg/injection, schedule: Q04DX002 (ip), vehicle: saline with Tween-80); 96 % of control (endpoint: mean survival time, dose: 200.0 mg/kg/injection, schedule: Q04DX002 (ip), vehicle: saline with Tween-80).

As to `O=C1NC(=O)C(CCCCO)N1` (stereo not given), the T/C is 101 % of control under setting [13], 106 % of control under setting [14] and 98 % of control under setting [4].
